Reference: PubChem BioAssay (NCI)
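Method: 48-hour compound exposure of cells in 96-well plates, five concentrations, linear interpolation of endpoints. TGI marks complete inhibition of growth.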

Assays:
Experiment in all cases: growth of human tumour cells (NCI), 48 h
HOP-62 NSCLC = test system: HOP-62 NSCLC
LOX IMVI melanoma = test system: LOX IMVI melanoma
HCT-15 colon = test system: HCT-15 colon
HT29 colon = test system: HT29 colon
SN12C renal = test system: SN12C renal
OVCAR-5 ovarian = test system: OVCAR-5 ovarian
HS 578T breast = test system: HS 578T breast
SF-268 CNS = test system: SF-268 CNS
SK-MEL-2 melanoma = test system: SK-MEL-2 melanoma
OVCAR-3 ovarian = test system: OVCAR-3 ovarian
RPMI-8226 leukemia = test system: RPMI-8226 leukemia
A549 NSCLC = test system: A549 NSCLC
HOP-92 NSCLC = test system: HOP-92 NSCLC
786-0 renal = test system: 786-0 renal
MDA-MB-231 breast = test system: MDA-MB-231 breast
DU-145 prostate = test system: DU-145 prostate
UO-31 renal = test system: UO-31 renal
OVCAR-4 ovarian = test system: OVCAR-4 ovarian
MDA-N = test system: MDA-N
CAKI-1 renal = test system: CAKI-1 renal
KM12 colon = test system: KM12 colon
SF-295 CNS = test system: SF-295 CNS
K-562 leukemia = test system: K-562 leukemia
NCI/ADR-RES ovarian = test system: NCI/ADR-RES ovarian
M14 melanoma = test system: M14 melanoma
NCI-H23 lung = test system: NCI-H23 lung
SK-OV-3 ovarian = test system: SK-OV-3 ovarian
BT-549 breast = test system: BT-549 breast
NCI-H226 lung = test system: NCI-H226 lung
SNB-19 CNS = test system: SNB-19 CNS
SR leukemia = test system: SR leukemia
CCRF-CEM leukemia = test system: CCRF-CEM leukemia
SK-MEL-5 melanoma = test system: SK-MEL-5 melanoma
SK-MEL-28 melanoma = test system: SK-MEL-28 melanoma
COLO 205 colon = test system: COLO 205 colon
HCT-116 colon = test system: HCT-116 colon
SNB-75 CNS = test system: SNB-75 CNS
U251 CNS = test system: U251 CNS
NCI-H522 lung = test system: NCI-H522 lung
EKVX NSCLC = test system: EKVX NSCLC
TK-10 renal = test system: TK-10 renal
MALME-3M melanoma = test system: MALME-3M melanoma
SW-620 colon = test system: SW-620 colon
T-47D breast = test system: T-47D breast
UACC-257 melanoma = test system: UACC-257 melanoma
ACHN renal = test system: ACHN renal
IGROV1 ovarian = test system: IGROV1 ovarian
OVCAR-8 ovarian = test system: OVCAR-8 ovarian
PC-3 prostate = test system: PC-3 prostate
RXF 393 renal = test system: RXF 393 renal
A498 renal = test system: A498 renal
UACC-62 melanoma = test system: UACC-62 melanoma
MDA-MB-435 = test system: MDA-MB-435
MOLT-4 leukemia = test system: MOLT-4 leukemia
SF-539 CNS = test system: SF-539 CNS
HCC-2998 colon = test system: HCC-2998 colon
MCF7 breast = test system: MCF7 breast
HL-60(TB) leukemia = test system: HL-60(TB) leukemia

Measured: TGI

Cc1ccc(N=Nc2c(O)c(C(=O)O)cc3ccccc23)c(S(=O)(=O)O)c1
not listed: SF-539 CNS | HCC-2998 colon | MCF7 breast | HL-60(TB) leukemia
> 100 µM: all other assays above

c1ccc2[nH]c(C3CCCCO3)nc2c1 (configuration not stated)
not listed: A498 renal
> 100 µM: all other assays above

CN1CCCN(C)CCCN(C)CCCN(C)CCC1
not listed: LOX IMVI melanoma | SN12C renal | HOP-92 NSCLC | SNB-75 CNS | A498 renal | SF-539 CNS | HL-60(TB) leukemia
> 100 µM: all other assays above
